# Test results: patent US10654853B2, “Spiro-condensed pyrrolidine derivatives as deubiquitylating enzymes (DUB) inhibitors” (MISSION THERAPEUTICS LIMITED, priority 2016, dated 2020)
# Target: Cezanne 1 (Homo sapiens (Human), UniProt Q6GQQ9)
# Assay: Cezanne 1 biochemical IC50 assay (fluorescence polarisation, TAMRA labelled peptide linked to ubiquitin)
# Conditions: Cezanne 1 biochemical IC50 assay; 30 min pre-incubation, read after 2 hr at room temperature; read-out: IC50 range
# Method in brief: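 FLAG-tagged Cezanne 1, expressed in HEK293T and FLAG-purified, was preincubated with compound for 30 min at room temperature in Tris pH 7.5 buffer with Tween 20, BSA and β-mercaptoethanol. Reactions were started with 50 nM TAMRA-peptide isopeptide-linked to ubiquitin. Fluorescence polarisation (ex 540/em 590 nm) was read immediately and after 2 h.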
# Cezanne 1, sequence (Q6GQQ9 whole entry): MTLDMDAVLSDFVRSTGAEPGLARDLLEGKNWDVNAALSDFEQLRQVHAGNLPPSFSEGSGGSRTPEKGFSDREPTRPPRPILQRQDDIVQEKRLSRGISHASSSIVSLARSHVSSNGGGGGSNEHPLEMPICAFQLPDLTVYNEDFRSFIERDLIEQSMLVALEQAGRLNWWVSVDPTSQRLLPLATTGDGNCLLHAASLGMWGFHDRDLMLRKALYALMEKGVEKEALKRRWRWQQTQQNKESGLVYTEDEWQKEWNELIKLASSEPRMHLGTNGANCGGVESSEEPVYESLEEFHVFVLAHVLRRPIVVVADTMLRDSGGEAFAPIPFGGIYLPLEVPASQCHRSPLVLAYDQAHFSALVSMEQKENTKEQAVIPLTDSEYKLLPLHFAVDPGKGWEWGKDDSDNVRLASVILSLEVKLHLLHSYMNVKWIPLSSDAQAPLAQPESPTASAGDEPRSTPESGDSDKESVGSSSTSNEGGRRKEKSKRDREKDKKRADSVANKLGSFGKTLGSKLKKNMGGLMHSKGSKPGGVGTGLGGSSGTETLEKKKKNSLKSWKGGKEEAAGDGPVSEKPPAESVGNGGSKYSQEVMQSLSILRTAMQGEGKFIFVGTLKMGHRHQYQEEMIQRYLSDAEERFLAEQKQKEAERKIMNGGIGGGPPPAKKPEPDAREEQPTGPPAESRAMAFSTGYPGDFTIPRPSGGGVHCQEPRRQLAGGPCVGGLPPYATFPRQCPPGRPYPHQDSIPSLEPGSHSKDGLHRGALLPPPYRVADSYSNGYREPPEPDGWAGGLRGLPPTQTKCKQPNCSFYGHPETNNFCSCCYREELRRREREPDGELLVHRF
row,Structure (SMILES),IC50 [nM]
1,"N#CN1CCC2(C1)Oc1nc(C(=O)Nc3ccc(F)cc3)ccc1NC2=O (stereo not drawn) [Example 141, 1′-Cyano-N-(4-fluorophenyl)-2-oxo-1,2-dihydrospiro[pyrido[2,3-b][1,4]oxazine-3,3′-pyrrolidine]-6-carboxamide]",1000 to 10000
2,"N#CN1CCC2(C1)Oc1nc(C(=O)N3CCCCC3)ccc1NC2=O (stereo not drawn) [Example 142, 2-Oxo-6-(piperidine-1-carbonyl)-1,2-dihydrospiro[pyrido[2,3-b][1,4]oxazine-3,3′-pyrrolidine]-1′-carbonitrile]",1000 to 10000
3,"N#CN1CCC2(C1)Oc1nc(C(=O)Nc3ccccc3)ccc1NC2=O (stereo not drawn) [Example 143, 1′-Cyano-2-oxo-N-phenyl-1,2-dihydrospiro[pyrido[2,3-b][1,4]oxazine-3,3′-pyrrolidine]-6-carboxamide]",100 to 1000
4,"N#CN1CCC2(C1)Oc1nc(C(=O)Nc3ccccc3F)ccc1NC2=O (stereo not drawn) [Example 144, 1′-Cyano-N-(2-fluorophenyl)-2-oxo-1,2-dihydrospiro[pyrido[2,3-b][1,4]oxazine-3,3′-pyrrolidine]-6-carboxamide]",100 to 1000
5,"Cc1cnn(C)c1-c1cnc2c(c1)NC(=O)C1(CCN(C#N)C1)N2 (stereo not drawn) [Example 146, 7-(1,4-Dimethyl-1H-pyrazol-5-yl)-2-oxo-1,4-dihydro-2H-spiro[pyrido[2,3-b]pyrazine-3,3′-pyrrolidine]-1′-carbonitrile]",100 to 1000
6,"N#CN1CCC2(C1)Nc1nc(-c3ccccc3)ccc1NC2=O (stereo not drawn) [Example 147, 2-Oxo-6-phenyl-1,4-dihydro-2H-spiro[pyrido[2,3-b]pyrazine-3,3′-pyrrolidine]-1′-carbonitrile]",1000 to 10000
